The values below come from publication PMC11601618 (bioRxiv, 2024).

Series [1] has as its target T1, chicken BEST1 (bestrophin 1) (Gallus gallus, UniProt A0A8V0ZZU7).
T1 sequence (A0A8V0ZZU7 1-405): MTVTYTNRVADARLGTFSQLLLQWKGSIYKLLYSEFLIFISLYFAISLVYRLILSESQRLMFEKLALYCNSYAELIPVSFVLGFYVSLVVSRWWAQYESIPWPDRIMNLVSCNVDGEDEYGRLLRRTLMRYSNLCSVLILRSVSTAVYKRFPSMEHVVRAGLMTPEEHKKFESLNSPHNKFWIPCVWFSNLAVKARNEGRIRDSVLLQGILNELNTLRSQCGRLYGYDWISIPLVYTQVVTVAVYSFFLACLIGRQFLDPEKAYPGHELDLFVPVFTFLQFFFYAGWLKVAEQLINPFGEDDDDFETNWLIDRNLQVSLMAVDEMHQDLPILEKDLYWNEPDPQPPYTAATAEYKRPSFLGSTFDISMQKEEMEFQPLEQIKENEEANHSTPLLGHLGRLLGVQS
Kind of series: cryo-EM structure with […] GABA. Format: biochemical.

The series “cryo-EM structure” deals with the molecule itself. Kind of series: cryo-EM structure.

In series [1], `NCCCC(=O)O` [GABA] returned a half-maximal effective concentration (EC50) of approximately 2000 µM.

B1: human BEST1 (spanning amino acids 1-398) (domain or fragment, UniProt O76090 1-398, looked up)
chain: MTITYTSQVANARLGSFSRLLLCWRGSIYKLLYGEFLIFLLCYYIIRFIYRLALTEEQQLMFEKLTLYCDSYIQLIPISFVLGFYVTLVVTRWWNQYENLPWPDRLMSLVSGFVEGKDEQGRLLRRTLIRYANLGNVLILRSVSTAVYKRFPSAQHLVQAGFMTPAEHKQLEKLSLPHNMFWVPWVWFANLSMKAWLGGRIRDPILLQSLLNEMNTLRTQCGHLYAYDWISIPLVYTQVVTVAVYSFFLTCLVGRQFLNPAKAYPGHELDLVVPVFTFLQFFFYVGWLKVAEQLINPFGEDDDDFETNWIVDRNLQVSLLAVDEMHQDLPRMEPDMYWNKPEPQPPYTAASAQFRRASFMGSTFNISLNKEEMEFQPNQEDEEDAHAGIIGRFLGLQS
For B1, the “stoichiometry N” value in “cryo-EM structure” worked out at 5.
